{
  "source": "paper PMC11188199",
  "about": "“Development and validation of a generic methyltransferase enzymatic assay based on an SAH riboswitch” (SLAS discovery : advancing life sciences R & D, 2024)",
  "key": {"Dar-1 split aptamer": {"target": "Dar-1 split aptamer", "test": "Split aptamer SAH assay with TR-FRET readout (AptaFluor), equilibrium binding", "design": "species or system D. aromatica", "details": "for EC50: n = 3, plates read at 3 hr"}, "[1]": {"system": "C[S+](CC[C@H](N)C(=O)[O-])C[C@H]1O[C@@H](n2cnc3c(N)ncnc32)[C@H](O)[C@@H]1O", "test": "purified protein, by the assay type", "details": "other: data not shown"}, "nsp14 [2]": {"target": "T1, nsp14 (Severe acute respiratory syndrome coronavirus 2, UniProt P0DTD1)", "details": "read-out: SAM Km; cited from earlier work"}, "SAH riboswitches": {"system": "SAH riboswitches", "design": "method as in PMID 18374645", "details": "native SAH riboswitch; cited from earlier work"}, "METTL3/METTL14": {"system": "METTL3/METTL14", "details": "cited from earlier work"}, "PRMT5 [3]": {"system": "PRMT5", "design": "method as in PMID 25915199", "details": "read-out: IC50 (published value); cited from earlier work"}, "[4]": {"system": "split Dar-1 riboswitch (Dar1 P1/P2)", "test": "Split aptamer SAH assay with FP readout", "assay_type": "binding, D. aromatica", "description": "Based on a literature review and preliminary testing, an SAH riboswitch from D. aromatica (Dar-1) was chosen for development of a split aptamer-based assay. […] We tested these configurations with a far red fluor on the shorter P2 element, allowing FP-based detection (Fig. 1A). […] Generally, a shift of at least 100 mP @ ≤ 10 % substrate conversion is desirable for HTS. It is likely that the FP signal is limited by the relatively modest difference in size between the free P2 RNA and the liganded P1–P2 complex. In this regard, attachment of one half of a split DNA aptamer to a silver nanoparticle produced a lactoferrin sensor with a signal greater than 100 mP [32]; to our knowledge, this is the only other example of a split aptamer-based assay with an FP readout. Attempts to use a similar approach by attaching Streptavidin to the P1 oligomer were not successful (data not shown).\nFig. 1. Split aptamer SAH assay with FP readout. A. SAH dependent assembly of split aptamer (Dar1 P1/P2) causes increase in polarization of a fluor attached to the P2 element. B. SAH titration, showing concentration dependence and stability of signal. C. Comparison of response to SAH, SAM and ATP. D. Standard curve mimicking enzymatic conversion of 200 nM SAM to SAH. E. Titration of PRMT3 in the presence of 500 nM SAM and Histone H4 peptide substrate. […]"}, "nsp14 [5]": {"target": "T1, nsp14"}, "PRMT5 [6]": {"target": "PRMT5", "design": "method as in PMID 34583982", "details": "RapidFire MS SAH detection; read-out: kiApp; cited from earlier work"}},
  "data": [
    {"compound": "Nc1ncnc2c1ncn2[C@@H]1O[C@H](CO)[C@@H](O)[C@H]1O", "note": "[adenosine]", "values": [
      {"measurement": "EC50", "setting": "Dar-1 split aptamer", "result": 108000, "unit": "nM"}
    ]},
    {"compound": "nsp14 (Severe acute respiratory syndrome coronavirus 2)", "values": [
      {"measurement": "Km", "setting": "[1]", "result": 0.06, "unit": "µM"}
    ]},
    {"compound": "C[S+](CC[C@H](N)C(=O)[O-])C[C@H]1O[C@@H](n2cnc3c(N)ncnc32)[C@H](O)[C@@H]1O", "note": "(stereo partly shown) [SAM, S-adenosylmethionine]", "values": [
      {"measurement": "Km", "setting": "nsp14 [2]", "result": 0.257, "unit": "µM"},
      {"measurement": "affinity fold lower than for SAH", "setting": "SAH riboswitches", "result": "at least 1000 fold"},
      {"measurement": "Km", "setting": "METTL3/METTL14; ssRNA substrate similar to the 28mer, read-out: SAM Km", "result": "~0.2", "unit": "µM"},
      {"measurement": "EC50", "setting": "Dar-1 split aptamer", "result": 23000, "unit": "nM"}
    ]},
    {"compound": "CNc1cc(N2CCC3(CC2)CN(c2cc(F)c(CN4CCC(C)(C)CC4)cc2F)CC(=O)N3)ncn1", "note": "[UZH2, reference compound]", "values": [
      {"measurement": "IC50", "setting": "METTL3/METTL14; read-out: IC50 (published value)", "result": 5, "unit": "nM"}
    ]},
    {"compound": "O=C(NC[C@H](O)CN1CCc2ccccc2C1)c1ccnc(NC2CCC2)c1", "note": "[GSK591]", "values": [
      {"measurement": "IC50", "setting": "PRMT5 [3]", "result": 22, "unit": "nM"}
    ]},
    {"compound": "Nc1ncnc2c1ncn2[C@@H]1O[C@H](CSCC[C@H](N)C(=O)O)[C@@H](O)[C@H]1O", "note": "[SAH, S-adenosylhomocysteine]", "values": [
      {"measurement": "Kd", "setting": "SAH riboswitches", "result": 20, "unit": "nM"},
      {"measurement": "observed selectivity (SAH vs SAM)", "setting": "Dar-1 split aptamer; highly purified preparation of SAM", "result": "more than 1000 fold"},
      {"measurement": "EC50", "setting": "Dar-1 split aptamer", "result": 20, "unit": "nM"},
      {"measurement": "selectivity vs. SAM", "setting": "[4]", "result": "greater than 200 fold"},
      {"measurement": "Kd", "setting": "[4]; split aptamer construct", "result": 22, "unit": "nM"}
    ]},
    {"compound": "O=C1C(Cl)=C(NCCN2CCOCC2)C(=O)c2ncccc21", "note": "[NSC-663284]", "values": [
      {"measurement": "inhibition of nsp14 enzymatic activity in dose response mode", "setting": "nsp14 [5]", "result": "dose-dependent response"}
    ]},
    {"compound": "Nc1nc2cc(CC[C@H]3C[C@@H](n4ccc5c(N)ncnc54)[C@H](O)[C@@H]3O)ccc2cc1Br", "note": "[JNJ64619178]", "values": [
      {"measurement": "Ki", "setting": "PRMT5 [6]", "result": 0.772, "unit": "nM"}
    ]},
    {"compound": "CC1(C)C(=O)N=C2C1=C(O)C(=O)c1ccccc12", "note": "[BVT-948]", "values": [
      {"measurement": "inhibition of nsp14 enzymatic activity in dose response mode", "setting": "nsp14 [5]", "result": "dose-dependent response"}
    ]}
  ]
}
